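Assay format: 96-well plates, 48-hour exposure. TGI: concentration producing complete growth inhibition.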
Columns and labels:
Test in all cases: NCI anticancer screen, dose series, 48 h
A549 NSCLC = tested on: A549 NSCLC
LOX IMVI melanoma = tested on: LOX IMVI melanoma
DU-145 prostate = tested on: DU-145 prostate
OVCAR-5 ovarian = tested on: OVCAR-5 ovarian
NCI-H226 lung = tested on: NCI-H226 lung
TK-10 renal = tested on: TK-10 renal
MALME-3M melanoma = tested on: MALME-3M melanoma
OVCAR-8 ovarian = tested on: OVCAR-8 ovarian
SR leukemia = tested on: SR leukemia
SK-MEL-2 melanoma = tested on: SK-MEL-2 melanoma
U251 CNS = tested on: U251 CNS
HCT-116 colon = tested on: HCT-116 colon
CCRF-CEM leukemia = tested on: CCRF-CEM leukemia
SF-539 CNS = tested on: SF-539 CNS
HOP-62 NSCLC = tested on: HOP-62 NSCLC
SW-620 colon = tested on: SW-620 colon
K-562 leukemia = tested on: K-562 leukemia
SK-OV-3 ovarian = tested on: SK-OV-3 ovarian
NCI-H23 lung = tested on: NCI-H23 lung
HL-60(TB) leukemia = tested on: HL-60(TB) leukemia
MDA-N = tested on: MDA-N
RPMI-8226 leukemia = tested on: RPMI-8226 leukemia
PC-3 prostate = tested on: PC-3 prostate
NCI/ADR-RES ovarian = tested on: NCI/ADR-RES ovarian
EKVX NSCLC = tested on: EKVX NSCLC
UACC-62 melanoma = tested on: UACC-62 melanoma
MDA-MB-231 breast = tested on: MDA-MB-231 breast
ACHN renal = tested on: ACHN renal
SK-MEL-5 melanoma = tested on: SK-MEL-5 melanoma
UACC-257 melanoma = tested on: UACC-257 melanoma
RXF 393 renal = tested on: RXF 393 renal
SK-MEL-28 melanoma = tested on: SK-MEL-28 melanoma
NCI-H522 lung = tested on: NCI-H522 lung
MOLT-4 leukemia = tested on: MOLT-4 leukemia
786-0 renal = tested on: 786-0 renal
IGROV1 ovarian = tested on: IGROV1 ovarian
SN12C renal = tested on: SN12C renal
KM12 colon = tested on: KM12 colon
SF-295 CNS = tested on: SF-295 CNS
SNB-75 CNS = tested on: SNB-75 CNS
NCI-H460 lung = tested on: NCI-H460 lung
A498 renal = tested on: A498 renal
SF-268 CNS = tested on: SF-268 CNS
T-47D breast = tested on: T-47D breast
BT-549 breast = tested on: BT-549 breast
SNB-19 CNS = tested on: SNB-19 CNS
HT29 colon = tested on: HT29 colon
HOP-92 NSCLC = tested on: HOP-92 NSCLC
MDA-MB-435 = tested on: MDA-MB-435
COLO 205 colon = tested on: COLO 205 colon
MCF7 breast = tested on: MCF7 breast
HS 578T breast = tested on: HS 578T breast
OVCAR-3 ovarian = tested on: OVCAR-3 ovarian
M14 melanoma = tested on: M14 melanoma
HCT-15 colon = tested on: HCT-15 colon
OVCAR-4 ovarian = tested on: OVCAR-4 ovarian
CAKI-1 renal = tested on: CAKI-1 renal
UO-31 renal = tested on: UO-31 renal
HCC-2998 colon = tested on: HCC-2998 colon

## O=C(O)CSc1ccn(Cc2ccccc2)c1
A549 NSCLC
  TGI: > 100 µM
LOX IMVI melanoma
  TGI: > 100 µM
DU-145 prostate
  TGI: > 100 µM
OVCAR-5 ovarian
  TGI: > 100 µM
NCI-H226 lung
  TGI: > 100 µM
TK-10 renal
  TGI: > 100 µM
MALME-3M melanoma
  TGI: > 100 µM
OVCAR-8 ovarian
  TGI: > 100 µM
SR leukemia
  TGI: > 100 µM
SK-MEL-2 melanoma
  TGI: > 100 µM
U251 CNS
  TGI: > 100 µM
HCT-116 colon
  TGI: > 100 µM
CCRF-CEM leukemia
  TGI: > 100 µM
SF-539 CNS
  TGI: > 100 µM
HOP-62 NSCLC
  TGI: > 100 µM
SW-620 colon
  TGI: > 100 µM
K-562 leukemia
  TGI: > 100 µM
SK-OV-3 ovarian
  TGI: > 100 µM
NCI-H23 lung
  TGI: > 100 µM
HL-60(TB) leukemia
  TGI: > 100 µM
MDA-N
  TGI: > 100 µM
RPMI-8226 leukemia
  TGI: > 100 µM
PC-3 prostate
  TGI: > 100 µM
NCI/ADR-RES ovarian
  TGI: > 100 µM
EKVX NSCLC
  TGI: > 100 µM
UACC-62 melanoma
  TGI: > 100 µM
MDA-MB-231 breast
  TGI: > 100 µM
ACHN renal
  TGI: > 100 µM
SK-MEL-5 melanoma
  TGI: > 100 µM
UACC-257 melanoma
  TGI: > 100 µM
RXF 393 renal
  TGI: > 100 µM
SK-MEL-28 melanoma
  TGI: > 100 µM
NCI-H522 lung
  TGI: > 100 µM
MOLT-4 leukemia
  TGI: > 100 µM
786-0 renal
  TGI: > 100 µM
IGROV1 ovarian
  TGI: > 100 µM
SN12C renal
  TGI: > 100 µM
KM12 colon
  TGI: > 100 µM
SF-295 CNS
  TGI: > 100 µM
SNB-75 CNS
  TGI: > 100 µM
NCI-H460 lung
  TGI: > 100 µM
A498 renal
  TGI: > 100 µM
SF-268 CNS
  TGI: > 100 µM
T-47D breast
  TGI: > 100 µM
BT-549 breast
  TGI: > 100 µM
SNB-19 CNS
  TGI: > 100 µM
HT29 colon
  TGI: > 100 µM
HOP-92 NSCLC
  TGI: > 100 µM
MDA-MB-435
  TGI: > 100 µM
COLO 205 colon
  TGI: > 100 µM
MCF7 breast
  TGI: > 100 µM
HS 578T breast
  TGI: > 100 µM
OVCAR-3 ovarian
  TGI: > 100 µM
M14 melanoma
  TGI: > 100 µM
HCT-15 colon
  TGI: > 100 µM
OVCAR-4 ovarian
  TGI: > 100 µM
CAKI-1 renal
  TGI: > 100 µM
UO-31 renal
  TGI: > 100 µM

## CCOC(=O)n1c2ccccc2c2c(O)c(OC)c3c(c21)C(=O)NC3=O
A549 NSCLC
  TGI: > 100 µM
LOX IMVI melanoma
  TGI: 38.9 µM
DU-145 prostate
  TGI: > 100 µM
OVCAR-5 ovarian
  TGI: > 100 µM
NCI-H226 lung
  TGI: 76.3 µM
TK-10 renal
  TGI: > 100 µM
MALME-3M melanoma
  TGI: 95.4 µM
OVCAR-8 ovarian
  TGI: > 100 µM
SR leukemia
  TGI: 87.9 µM
SK-MEL-2 melanoma
  TGI: > 100 µM
U251 CNS
  TGI: > 100 µM
HCT-116 colon
  TGI: 49 µM
CCRF-CEM leukemia
  TGI: > 100 µM
SF-539 CNS
  TGI: > 100 µM
HOP-62 NSCLC
  TGI: > 100 µM
SW-620 colon
  TGI: > 100 µM
K-562 leukemia
  TGI: > 100 µM
SK-OV-3 ovarian
  TGI: > 100 µM
NCI-H23 lung
  TGI: > 100 µM
HL-60(TB) leukemia
  TGI: 49.2 µM
MDA-N
  TGI: > 100 µM
RPMI-8226 leukemia
  TGI: > 100 µM
PC-3 prostate
  TGI: > 100 µM
NCI/ADR-RES ovarian
  TGI: 81.3 µM
EKVX NSCLC
  TGI: > 100 µM
UACC-62 melanoma
  TGI: > 100 µM
MDA-MB-231 breast
  TGI: 56.4 µM
HCC-2998 colon
  TGI: > 100 µM
ACHN renal
  TGI: > 100 µM
SK-MEL-5 melanoma
  TGI: > 100 µM
UACC-257 melanoma
  TGI: > 100 µM
SK-MEL-28 melanoma
  TGI: > 100 µM
NCI-H522 lung
  TGI: > 100 µM
MOLT-4 leukemia
  TGI: > 100 µM
786-0 renal
  TGI: 98.5 µM
IGROV1 ovarian
  TGI: > 100 µM
SN12C renal
  TGI: > 100 µM
KM12 colon
  TGI: > 100 µM
SF-295 CNS
  TGI: > 100 µM
SNB-75 CNS
  TGI: > 100 µM
NCI-H460 lung
  TGI: > 100 µM
A498 renal
  TGI: > 100 µM
T-47D breast
  TGI: > 100 µM
BT-549 breast
  TGI: > 100 µM
SNB-19 CNS
  TGI: > 100 µM
HT29 colon
  TGI: 84.3 µM
HOP-92 NSCLC
  TGI: > 100 µM
MDA-MB-435
  TGI: > 100 µM
COLO 205 colon
  TGI: 52.2 µM
MCF7 breast
  TGI: > 100 µM
HS 578T breast
  TGI: > 100 µM
OVCAR-3 ovarian
  TGI: > 100 µM
M14 melanoma
  TGI: > 100 µM
HCT-15 colon
  TGI: > 100 µM
OVCAR-4 ovarian
  TGI: > 100 µM
CAKI-1 renal
  TGI: 64.7 µM
UO-31 renal
  TGI: > 100 µM

## CC(C)n1c2c(c3ccccc3c1=O)C(=O)c1ccccc1-2
A549 NSCLC
  TGI: > 100 µM
LOX IMVI melanoma
  TGI: > 100 µM
DU-145 prostate
  TGI: > 100 µM
OVCAR-5 ovarian
  TGI: > 100 µM
NCI-H226 lung
  TGI: > 100 µM
TK-10 renal
  TGI: > 100 µM
MALME-3M melanoma
  TGI: > 100 µM
OVCAR-8 ovarian
  TGI: > 100 µM
SR leukemia
  TGI: > 100 µM
SK-MEL-2 melanoma
  TGI: > 100 µM
U251 CNS
  TGI: > 100 µM
HCT-116 colon
  TGI: > 100 µM
CCRF-CEM leukemia
  TGI: > 100 µM
SF-539 CNS
  TGI: > 100 µM
HOP-62 NSCLC
  TGI: > 100 µM
SW-620 colon
  TGI: > 100 µM
K-562 leukemia
  TGI: > 100 µM
SK-OV-3 ovarian
  TGI: > 100 µM
NCI-H23 lung
  TGI: > 100 µM
HL-60(TB) leukemia
  TGI: > 100 µM
MDA-N
  TGI: > 100 µM
RPMI-8226 leukemia
  TGI: > 100 µM
PC-3 prostate
  TGI: > 100 µM
NCI/ADR-RES ovarian
  TGI: > 100 µM
EKVX NSCLC
  TGI: > 100 µM
UACC-62 melanoma
  TGI: > 100 µM
MDA-MB-231 breast
  TGI: > 100 µM
HCC-2998 colon
  TGI: > 100 µM
SK-MEL-5 melanoma
  TGI: > 100 µM
UACC-257 melanoma
  TGI: > 100 µM
SK-MEL-28 melanoma
  TGI: > 100 µM
NCI-H522 lung
  TGI: > 100 µM
MOLT-4 leukemia
  TGI: > 100 µM
786-0 renal
  TGI: > 100 µM
IGROV1 ovarian
  TGI: > 100 µM
SN12C renal
  TGI: > 100 µM
KM12 colon
  TGI: > 100 µM
SF-295 CNS
  TGI: > 100 µM
SNB-75 CNS
  TGI: > 100 µM
A498 renal
  TGI: > 100 µM
SF-268 CNS
  TGI: > 100 µM
T-47D breast
  TGI: > 100 µM
BT-549 breast
  TGI: > 100 µM
SNB-19 CNS
  TGI: > 100 µM
HT29 colon
  TGI: > 100 µM
HOP-92 NSCLC
  TGI: > 100 µM
MDA-MB-435
  TGI: > 100 µM
COLO 205 colon
  TGI: > 100 µM
MCF7 breast
  TGI: > 100 µM
HS 578T breast
  TGI: > 100 µM
OVCAR-3 ovarian
  TGI: > 100 µM
M14 melanoma
  TGI: > 100 µM
HCT-15 colon
  TGI: > 100 µM
OVCAR-4 ovarian
  TGI: > 100 µM
CAKI-1 renal
  TGI: > 100 µM
UO-31 renal
  TGI: > 100 µM

Reference: PubChem BioAssay (NCI)
